ChEMBL document CHEMBL1137686, “Synthesis and anticonvulsant activity of new N-[(4-arylpiperazin-1-yl)-alkyl] derivatives of 3-phenyl-pyrrolidine-2,5-dione” (Eur J Med Chem, 2009)
Calls of active or inactive are those of the source. The rule behind the calls is not given here.

Legend:
Mus musculus [1] = experiment: Anticonvulsant activity in ip dosed CF1 albino mouse assessed as inhibition of maximal electroshock-induced seizures after 4 hrs; assay type: functional
Mus musculus [2] = experiment: Neurotoxicity in CF1 albino mouse assessed as ability to maintain equilibrium for 1 min on […] at 300 mg/kg, ip after 0.5 hrs by rotarod test; assay type: toxicity, organism-based; design: dose 300 mg/kg, route intraperitoneal; conditions: in vivo
Mus musculus [3] = experiment: Neurotoxicity in CF1 albino mouse assessed as ability to maintain equilibrium for 1 min on […] at 300 mg/kg, ip after 4 hrs by rotarod test; assay type: toxicity, organism-based; design: dose 300 mg/kg, route intraperitoneal; conditions: in vivo
Mus musculus [4] = experiment: Anticonvulsant activity in ip dosed CF1 albino mouse assessed as inhibition of maximal electroshock-induced seizures after 0.5 hrs; assay type: functional
Mus musculus [5] = experiment: Neurotoxicity in CF1 albino mouse assessed as motor impairment at 30 mg/kg, po after 2 hrs by rotarod test; assay type: toxicity, organism-based; design: dose 30 mg/kg, route oral; conditions: in vivo
Mus musculus [6] = experiment: Neurotoxicity in CF1 albino mouse assessed as motor impairment at 30 mg/kg, po after 1 hr by rotarod test; assay type: toxicity, organism-based; design: dose 30 mg/kg, route oral; conditions: in vivo
Mus musculus [7] = experiment: Neurotoxicity in CF1 albino mouse assessed as motor impairment at 30 mg/kg, po after 4 hrs by rotarod test; assay type: toxicity, organism-based; design: dose 30 mg/kg, route oral; conditions: in vivo
Mus musculus [8] = experiment: Neurotoxicity in CF1 albino mouse assessed as motor impairment at 30 mg/kg, po after 0.25 hrs by rotarod test; assay type: toxicity, organism-based; design: dose 30 mg/kg, route oral; conditions: in vivo
Mus musculus [9] = experiment: Anticonvulsant activity in CF1 albino mouse assessed as protection against maximal electroshock-induced seizures at 30 mg/kg, po after 4 hrs; assay type: functional
Mus musculus [10] = experiment: Anticonvulsant activity in CF1 albino mouse assessed as protection against maximal electroshock-induced seizures at 30 mg/kg, po after 1 hr; assay type: functional
Mus musculus [11] = experiment: Anticonvulsant activity in CF1 albino mouse assessed as protection against maximal electroshock-induced seizures at 30 mg/kg, po after 0.5 hrs; assay type: functional
Mus musculus [12] = experiment: Neurotoxicity in CF1 albino mouse assessed as motor impairment at 30 mg/kg, po after 0.5 hrs by rotarod test; assay type: toxicity, organism-based; design: dose 30 mg/kg, route oral; conditions: in vivo
Mus musculus [13] = experiment: Anticonvulsant activity in CF1 albino mouse assessed as inhibition of maximal electroshock-induced seizures at 300 mg/kg, ip after 0.5 hrs; assay type: functional, organism-based; design: dose 300 mg/kg
Mus musculus [14] = experiment: Anticonvulsant activity in CF1 albino mouse assessed as protection against maximal electroshock-induced seizures at 30 mg/kg, po after 2 hrs; assay type: functional
Mus musculus [15] = experiment: Anticonvulsant activity in CF1 albino mouse assessed as protection against maximal electroshock-induced seizures at 30 mg/kg, po after 0.25 hrs; assay type: functional
Mus musculus [16] = experiment: Anticonvulsant activity in ip dosed CF1 albino mouse assessed as inhibition of subcutaneous pentylenetetrazole-induced seizures; assay type: functional
Mus musculus [17] = experiment: Anticonvulsant activity against maximal electroshock-induced seizures in ip dosed CF1 albino mouse assessed as time to peak effect; assay type: functional
[18] = Neurotoxicity in ip dosed CF1 albino mouse assessed as ability to maintain equilibrium for 1 min on […] by rotarod test; assay type: toxicity, organism-based; conditions: in vivo
Mus musculus [19] = species on record: Mus musculus; experiment: Protective index, ratio of TD50 for neurotoxicity in CF1 albino mouse to ED50 for inhibition of maximal electroshock-induced seizures in CF1 albino mouse; assay type: functional
Mus musculus [20] = experiment: Neurotoxicity in ip dosed CF1 albino mouse assessed as ability to maintain equilibrium for 1 min on […] after 0.5 hrs by rotarod test; assay type: toxicity, organism-based; conditions: in vivo
Mus musculus [21] = experiment: Anticonvulsant activity in ip dosed CF1 albino mouse assessed as inhibition of maximal electroshock-induced seizures; assay type: functional
Mus musculus [22] = experiment: Neurotoxicity in ip dosed CF1 albino mouse assessed as ability to maintain equilibrium for 1 min on […] after 4 hrs by rotarod test; assay type: toxicity, organism-based; conditions: in vivo
Mus musculus [23] = experiment: Neurotoxicity in CF1 albino mouse assessed as death at 300 mg/kg, ip after 0.5 hrs by rotarod test; assay type: toxicity, organism-based; design: dose 300 mg/kg, route intraperitoneal; conditions: in vivo
Mus musculus [24] = experiment: Anticonvulsant activity in CF1 albino mouse assessed as inhibition of maximal electroshock-induced seizures at 300 mg/kg, ip after 4 hrs; assay type: functional, organism-based; design: dose 300 mg/kg
Mus musculus [25] = experiment: Neurotoxicity in CF1 albino mouse assessed as muscle spasm at 300 mg/kg, po after 0.5 hrs by rotarod test; assay type: toxicity, organism-based, Muscle tissue; design: dose 300 mg/kg, route oral; conditions: in vivo
Mus musculus [26] = experiment: Neurotoxicity in CF1 albino mouse assessed as ability to grasp rotarod at 300 mg/kg, ip after 0.5 hrs by rotarod test; assay type: toxicity, organism-based; design: dose 300 mg/kg, route intraperitoneal; conditions: in vivo
Mus musculus [27] = experiment: Toxicity in CF1 albino mouse assessed as myoclonic jerks at 100 mg/kg, ip after 4 hrs; assay type: organism-based; design: dose 100 mg/kg, route intraperitoneal; conditions: in vivo
Mus musculus [28] = experiment: Neurotoxicity in CF1 albino mouse assessed as motor impairment at 30 mg/kg, ip after 4 hrs by rotarod test; assay type: toxicity, organism-based; design: dose 30 mg/kg, route intraperitoneal; conditions: in vivo
Mus musculus [29] = experiment: Neurotoxicity in CF1 albino mouse assessed as motor impairment at 30 mg/kg, ip after 2 hrs by rotarod test; assay type: toxicity, organism-based; design: dose 30 mg/kg, route intraperitoneal; conditions: in vivo
Mus musculus [30] = experiment: Neurotoxicity in CF1 albino mouse assessed as motor impairment at 30 mg/kg, ip after 1 hr by rotarod test; assay type: toxicity, organism-based; design: dose 30 mg/kg, route intraperitoneal; conditions: in vivo
Mus musculus [31] = experiment: Anticonvulsant activity in CF1 albino mouse assessed as protection against maximal electroshock-induced seizures at 30 mg/kg, ip after 1 hr; assay type: functional
Mus musculus [32] = experiment: Anticonvulsant activity in CF1 albino mouse assessed as protection against maximal electroshock-induced seizures at 30 mg/kg, ip after 0.5 hrs; assay type: functional
Mus musculus [33] = experiment: Anticonvulsant activity in CF1 albino mouse assessed as protection against maximal electroshock-induced seizures at 30 mg/kg, ip after 0.25 hrs; assay type: functional
Mus musculus [34] = experiment: Neurotoxicity in CF1 albino mouse assessed as motor impairment at 30 mg/kg, ip after 0.5 hrs by rotarod test; assay type: toxicity, organism-based; design: dose 30 mg/kg, route intraperitoneal; conditions: in vivo
Mus musculus [35] = experiment: Neurotoxicity in CF1 albino mouse assessed as motor impairment at 30 mg/kg, ip after 0.25 hrs by rotarod test; assay type: toxicity, organism-based; design: dose 30 mg/kg, route intraperitoneal; conditions: in vivo
Mus musculus [36] = experiment: Anticonvulsant activity in CF1 albino mouse assessed as protection against maximal electroshock-induced seizures at 30 mg/kg, ip after 2 hrs; assay type: functional
Mus musculus [37] = experiment: Anticonvulsant activity in CF1 albino mouse assessed as protection against maximal electroshock-induced seizures at 30 mg/kg, ip after 4 hrs; assay type: functional

Row | Structure (SMILES) | Activity (Mus musculus [1]) [mg/kg] | Activity (Mus musculus [2]) | Activity (Mus musculus [3]) | Activity (Mus musculus [4]) [mg/kg] | Activity (Mus musculus [5]) | Activity (Mus musculus [6]) | Activity (Mus musculus [7]) | Activity (Mus musculus [8]) | Activity (Mus musculus [9]) | Activity (Mus musculus [10]) | Activity (Mus musculus [11]) | Activity (Mus musculus [12]) | Activity (Mus musculus [13]) | Activity (Mus musculus [14]) | Activity (Mus musculus [15]) | Activity (Mus musculus [20]) [mg/kg] | Activity (Mus musculus [24]) | other results
1 | Cc1ccccc1C1CC(=O)N(CCN2CCN(c3cccc(C(F)(F)F)c3)CC2)C1=O (configuration not stated) | 300 | Non-toxic | Non-toxic | 300 |  |  |  |  |  |  |  |  |  |  |  |  |  | 
2 | O=C1CC(c2ccccc2C(F)(F)F)C(=O)N1CCN1CCN(c2cccc(Cl)c2)CC1 (configuration not stated) | 100 | Non-toxic | Non-toxic |  | Non-toxic | Non-toxic | Non-toxic | Non-toxic | inactive | inactive | inactive | Non-toxic | inactive | inactive | inactive |  |  | 
3 | O=C1CC(c2ccccc2C(F)(F)F)C(=O)N1CCCN1CCN(c2cccc(C(F)(F)F)c2)CC1 (configuration not stated) | 100 |  |  | 30 | Non-toxic | Non-toxic | Non-toxic | Non-toxic | inactive | 25% | 25% | Non-toxic |  | inactive | inactive | 300 |  | ED50 (Mus musculus [16]): > 350 mg/kg; Time (Mus musculus [17]): 2 h; TD50 at 1 min [18]: 360 mg/kg; Ratio TD50/ED50 (Mus musculus [19]): 2.72; ED50 (Mus musculus [21]): 132 mg/kg; Activity (Mus musculus [22]): 300 mg/kg
4 | COc1ccccc1N1CCN(CCN2C(=O)CC(c3ccccc3C)C2=O)CC1 (configuration not stated) |  |  | Non-toxic |  |  |  |  |  |  |  |  |  | inactive |  |  | 300 | inactive | Activity (Mus musculus [23]): Toxic
5 | COc1ccccc1N1CCN(CCN2C(=O)CC(c3ccccc3C(F)(F)F)C2=O)CC1 (configuration not stated) |  |  | Non-toxic |  |  |  |  |  |  |  |  |  | inactive |  |  | 300 | inactive | Activity (Mus musculus [25]): Toxic; Activity (Mus musculus [26]): Toxic
6 | COc1ccccc1N1CCN(CN2C(=O)CC(c3ccccc3C)C2=O)CC1.Cl (configuration not stated) |  |  |  | 300 |  |  |  |  |  |  |  |  |  |  |  | 100 | inactive | Activity (Mus musculus [27]): Toxic; Activity (Mus musculus [22]): 300 mg/kg
7 | O=C1CC(c2ccccc2C(F)(F)F)C(=O)N1CCCN1CCN(c2ccccc2)CC1 (configuration not stated) |  |  | Non-toxic | 300 |  |  |  |  |  |  |  |  |  |  |  | 300 | inactive | Activity (Mus musculus [26]): Toxic
8 | Cc1ccccc1C1CC(=O)N(CCN2CCN(c3cccc(Cl)c3)CC2)C1=O (configuration not stated) | 100 | Non-toxic | Non-toxic |  | Non-toxic | Non-toxic | Non-toxic | Non-toxic | 50% | 25% | inactive | Non-toxic | inactive | inactive | inactive |  |  | Activity (Mus musculus [28]): Non-toxic; Activity (Mus musculus [29]): Non-toxic; Activity (Mus musculus [30]): Non-toxic; Activity (Mus musculus [31]): inactive; Activity (Mus musculus [32]): inactive; Activity (Mus musculus [33]): inactive; Activity (Mus musculus [34]): Non-toxic; Activity (Mus musculus [35]): Non-toxic; Activity (Mus musculus [36]): inactive; Activity (Mus musculus [37]): inactive
